This note sets out measurements from patent publication US20210177814A1, “USE OF GUANABENZ OR DERIVATES THEREOF FOR THE TREATMENT OF TYPE I IFN-DEPENDENT PATHOLOGIES” (INSERM (Institut National de la Santé et de la Recherche …, priority 2018, published 2021).

The experiment has as its target T1, TLR9 (Mus musculus, UniProt Q9EQU3).
T1 construct: from tissue; host or cells: whole animal: C57BL/6, FVB and FVB GADD34ΔC/ΔC mice
T1 sequence (Q9EQU3 26-1032): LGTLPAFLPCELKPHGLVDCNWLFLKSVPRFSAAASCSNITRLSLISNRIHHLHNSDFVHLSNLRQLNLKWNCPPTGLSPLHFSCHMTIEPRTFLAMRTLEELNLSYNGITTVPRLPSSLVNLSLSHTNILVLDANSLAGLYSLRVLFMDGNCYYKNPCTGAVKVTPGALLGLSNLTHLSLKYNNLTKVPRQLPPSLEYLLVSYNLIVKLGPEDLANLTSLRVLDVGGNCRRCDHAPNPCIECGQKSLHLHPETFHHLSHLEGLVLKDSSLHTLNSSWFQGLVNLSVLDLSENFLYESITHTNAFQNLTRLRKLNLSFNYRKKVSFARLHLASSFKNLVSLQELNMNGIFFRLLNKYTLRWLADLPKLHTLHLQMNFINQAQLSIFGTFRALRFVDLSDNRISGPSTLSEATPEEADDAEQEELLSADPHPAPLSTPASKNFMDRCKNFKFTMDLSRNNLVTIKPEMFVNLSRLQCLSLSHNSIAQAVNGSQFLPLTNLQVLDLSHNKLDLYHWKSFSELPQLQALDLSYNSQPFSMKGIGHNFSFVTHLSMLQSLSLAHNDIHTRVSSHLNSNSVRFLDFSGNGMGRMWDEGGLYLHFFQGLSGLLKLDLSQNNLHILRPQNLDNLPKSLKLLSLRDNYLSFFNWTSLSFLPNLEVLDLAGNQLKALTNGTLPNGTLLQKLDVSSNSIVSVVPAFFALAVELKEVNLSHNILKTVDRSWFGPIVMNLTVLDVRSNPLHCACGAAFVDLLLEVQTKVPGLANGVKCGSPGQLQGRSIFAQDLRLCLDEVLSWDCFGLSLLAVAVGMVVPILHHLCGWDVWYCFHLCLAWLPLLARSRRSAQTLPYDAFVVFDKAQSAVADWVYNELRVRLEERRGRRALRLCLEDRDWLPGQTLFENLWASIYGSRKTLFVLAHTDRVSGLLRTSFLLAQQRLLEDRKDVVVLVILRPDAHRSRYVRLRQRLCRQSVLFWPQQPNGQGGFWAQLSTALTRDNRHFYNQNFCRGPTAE
The experiment in a line: D-galN/CpG ODN 1826 cytokine shock model. The class given is in vivo. The procedure:
WT and GADD34^ΔC/ΔC mice were injected with D-galN (20 mg/mouse), CpG ODN 1826 or PBS for control mice (50 μg/20 g), GBZ or clonidine (2 mg/kg). (A) Survival of C57/BL6 mice is represented as total percentage of survival after 48 h or in a Kaplan-Meier plot. (B) Survival of FVB (WT) and FVB GADD34^ΔC/ΔC mice is represented as total percentage of survival after 48 h or in a Kaplan-Meier plot. (C) The concentration of circulating TNF-α, IL-10 and IL-6 in C57/BL6 mice was measured after 1 h and/or 3 h of CpG ODN 1826. (D) Liver tissue damage and histology score were blindly determined by a professional anatomopathologist. Statistical significance was assigned on sample comparison by a one-way ANOVA, followed by Tukey range test and on the survival curve using log-rank test, followed by Benjamini-Yekutieli correction (* p<0.05; ** p<0.005; ***p<0.0005.).
Wild type female mice C57BL/6 of 8 weeks of age were injected i.p. with 2 mg/kg of GBZ, clonidine or PBS/DMSO. One hour later, they were injected i.p. with 20 mg/mouse of d-GalN and ODN 1826 50 μg/20 g (or PBS). Mice survival was checked every 12 hours for up to 48 hours. For some experiments, blood sera were collected 1 and 3 h after the injection of D-galN. The serum was used to measure circulating cytokines (TNFα, IL-6, IFNβ IL-10, IL-12). For some experiments, the liver was collected for immunohistochemistry after two days. For i.p. injections, 1 ml syringes and 25 gauge needles were used. Blood was collected from the cheek with a 18 gauge needle; for the TMPD model, no more than 200 μL were collected each time, respecting the ethic statement.
Mouse kidney and liver were fixed in 10% buffered formalin for 24 h, then the tissues were dehydrated and embedded in paraffin. Tissue sections of 3.5 μm were cut using the microtom Leica RM2245. Hematoxylin-eosin staining was effectuated automatically with Leica autostainer XL. Finally, the slides were mounted with entellan and kept at room temperature. Biopsies were analyzed by an anatomopathologist and the clinical score was assigned in a blinded way. Pictures were taken with Nikon Eclipse.
• a) Lobular inflammation • 0—no inflammation, 1—mild lobular inflammation (<10% of liver parenchyma), 2—moderate lobular inflammation (10-50% of liver parenchyma), 3—severe lobular inflammation (>50% of liver parenchyma) • b) Portal inflammation • 0—no portal inflammation, 1—mild portal inflammation (<⅓ of portal tracts), 2—moderate portal inflammation (approximately 50% of portal tracks), 3—severe portal inflammation (>⅔ of portal tracts) • Portal and lobular inflammation score are added=inflammation score • c) Necrosis • 0—No necrosis, 1—<10% necrosis of liver parenchyma, 2—10-25% necrosis of liver parenchyma, 3—25% necrosis of liver parenchyma • Inflammation score and necrosis score are added=Total histologic score

Where [1] appears, read: WT mice, 1 hour after CpG injection, 2 mg/kg.

Regarding `NC(N)=N/N=C/c1c(Cl)cccc1Cl` [GBZ, 2-(2,6-dichlorobenzylidene)-hydrazinecarboximidamide], the “survival after 48 h” value (C57BL/6 WT mice, D-galN + CpG ODN 1826, compound 2 mg/kg i.p.) is on record as “up to 70%”. Also, the “liver cells survival (liver examination and histological scores)” value (CpG-induced lethality, GBZ 2 mg/kg) is listed as “little direct protective effect”. Further, the survival entry (FVB GADD34ΔC/ΔC mice, D-galN + CpG, GBZ 2 mg/kg) is reported as “protected from death”. The “decrease in efficiency of protection in GADD34ΔC/ΔC mice” value (GADD34ΔC/ΔC vs WT mice, GBZ 2 mg/kg) is reported as ~28%. Moreover, the “production of IL-10” value (WT mice after CpG injection, GBZ 2 mg/kg) is recorded as “strongly increased”. In addition, under setting [1], the “circulating IL-6 plasma concentration” value is given as “strongly attenuated” and the “circulating TNF-α plasma concentration” value was “strongly attenuated”.
